# Reference: US20080279829A1, “Phenyl-(4-Phenyl-Pyrimidin-2-Yl)-Amines For Enhancing Immunotolerance” (priority 2005, published 2008)
# Test system: BALB/c diabetic female mice with C57BI/6 islet allograft
# Assay: cellular therapy with in vitro TEST COMPOUND-treated BM-DC in islet allograft transplantation
# Type: in vivo
# Details: injected i.v. one day before transplantation
# Protocol: To further investigate the effect of TEST COMPOUND on murine DCs bone marrow cells from BALB/c mice are differentiated with GM-CSF into bone marrow derived DCs (BM-DCs) in the presence or absence of TEST COMPOUND (20 nM). BM-DC are left immature or activated with LPS.
# BM-DC are injected (3×105, i.v.) into BALB/c diabetic female mice one day before C57BI/6 islet allograft transplantation. Graft survival is monitored by weekly measurement of blood glucose level (*two-tailed t test).
compound,measurement,value
"FC(F)(F)c1ccc(Nc2nccc(-c3cccc(Cl)c3)n2)cc1 [Compound B, N-[4-(3-Chloro-phenyl)-pyrimidin-2-yl]-N-(4-trifluoromethyl-phenyl)-amine]",islets allograft acceptance after injection of LPS-activated (mature) treated recipient type BM-DC,significantly prevents islet graft rejection
